The assay has as its target human F508del-CFTR (Homo sapiens, UniProt P13569, DEL508-508). Briefly: F508del-CFTR cell surface expression (corrector activity), DiscoveRx ß-galactosidase complementation chemiluminescence assay in recombinant U2OS cell line.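 On all read-outs here: U2OS cells co-expressing ProLink-tagged F508del-CFTR and a membrane-anchored enzyme acceptor, where more surface CFTR restores β-galactosidase activity measured by chemiluminescence.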 The settings on record: for EC50: EC50, F508del-CFTR cell surface expression, U2OS cells, 16h compound incubation, geomean values; for Emax: U2OS, in relation to Emax of corrector lumacaftor (=100%), arithmetic mean values.

In general, EC50 refers to the midpoint of the concentration-response curve. The Emax is the greatest response seen or fitted, relative to the assay's reference.

Sequence of human F508del-CFTR (P13569 with tags, fused parts or gaps DEL508-508): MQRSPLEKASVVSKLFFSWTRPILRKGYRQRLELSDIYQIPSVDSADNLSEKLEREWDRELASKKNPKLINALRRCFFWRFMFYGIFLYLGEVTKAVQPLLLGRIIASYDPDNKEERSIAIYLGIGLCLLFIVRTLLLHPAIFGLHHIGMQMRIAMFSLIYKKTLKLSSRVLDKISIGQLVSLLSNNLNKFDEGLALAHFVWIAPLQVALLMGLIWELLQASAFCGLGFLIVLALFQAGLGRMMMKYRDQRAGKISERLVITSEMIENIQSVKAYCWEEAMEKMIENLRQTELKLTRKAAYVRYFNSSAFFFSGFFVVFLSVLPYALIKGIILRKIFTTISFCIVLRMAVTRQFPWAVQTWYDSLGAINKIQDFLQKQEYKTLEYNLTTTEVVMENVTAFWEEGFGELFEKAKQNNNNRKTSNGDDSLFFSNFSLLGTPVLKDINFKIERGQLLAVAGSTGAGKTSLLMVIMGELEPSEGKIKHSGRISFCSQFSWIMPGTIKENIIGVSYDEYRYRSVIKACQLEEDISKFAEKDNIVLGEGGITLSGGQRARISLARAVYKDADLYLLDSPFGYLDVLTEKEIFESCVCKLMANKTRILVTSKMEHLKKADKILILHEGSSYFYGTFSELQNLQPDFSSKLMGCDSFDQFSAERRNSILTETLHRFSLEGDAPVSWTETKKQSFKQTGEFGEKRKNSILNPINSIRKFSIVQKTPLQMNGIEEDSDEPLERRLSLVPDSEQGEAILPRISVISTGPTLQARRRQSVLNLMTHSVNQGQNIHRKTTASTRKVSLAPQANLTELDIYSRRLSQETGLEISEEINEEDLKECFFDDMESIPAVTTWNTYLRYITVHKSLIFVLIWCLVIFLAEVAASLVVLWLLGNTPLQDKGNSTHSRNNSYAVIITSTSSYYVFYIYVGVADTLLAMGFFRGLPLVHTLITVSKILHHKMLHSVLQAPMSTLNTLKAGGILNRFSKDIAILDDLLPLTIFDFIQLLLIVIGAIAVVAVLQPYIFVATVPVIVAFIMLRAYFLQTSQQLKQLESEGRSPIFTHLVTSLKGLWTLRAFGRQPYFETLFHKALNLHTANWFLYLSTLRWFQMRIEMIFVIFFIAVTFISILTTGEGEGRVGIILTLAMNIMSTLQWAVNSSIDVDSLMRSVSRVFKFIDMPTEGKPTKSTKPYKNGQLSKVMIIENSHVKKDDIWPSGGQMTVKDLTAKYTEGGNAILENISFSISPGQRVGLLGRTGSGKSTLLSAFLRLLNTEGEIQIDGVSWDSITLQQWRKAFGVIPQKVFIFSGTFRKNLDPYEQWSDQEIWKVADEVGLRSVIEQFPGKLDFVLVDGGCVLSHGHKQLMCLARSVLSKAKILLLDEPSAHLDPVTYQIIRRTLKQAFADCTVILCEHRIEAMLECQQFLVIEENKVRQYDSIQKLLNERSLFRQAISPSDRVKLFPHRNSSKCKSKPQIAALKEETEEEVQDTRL

With `Cc1cc(CCNC(=O)[C@@H]2CC(=O)N(C)[C@@H](CC(C)C)C(=O)N(C)[C@H](CC(F)F)C(=O)N[C@H](Cc3ccccc3)COc3cnc4ccccc4c3C(=O)N2)on1` [Example 699, (3S,7S,10R,13R)-13-benzyl-10-(2,2-difluoroethyl)-7-isobutyl-6,9-dimethyl-N-(2-(3-methylisoxazol-5-yl)ethyl)-1,5,8,11-tetraoxo-1,2,3,4,5,6,7,8,9,10,11,12,13,14-tetradecahydro-[1]oxa[4,7,10,14]tetraazacycloheptadecino[17,16-c]quinoline-3-carboxamide], the EC50 is 299 nM and the Emax stood at 338%.

Consider `CC(C)C[C@H]1C(=O)N(CC2COc3ccccc3C2)CC(=O)N[C@H](Cc2ccccc2)COc2ccc3ccccc3c2C(=O)N[C@H](C(=O)NCCc2ccc3c(c2)OCO3)CC(=O)N1C` (stereo partly drawn) [Example 700, (3S,7S,13R)—N-(2-(Benzo[d][1,3]dioxol-5-yl)ethyl)-13-benzyl-9-(((S)-chroman-3-yl)methyl)-7-isobutyl-6-methyl-1,5,8,11-tetraoxo-1,2,3,4,5,6,7,8,9,10,11,12,13,14-tetradecahydronaphtho[1,2-p][1]oxa[4,7,10,14]tetraazacycloheptadecine-3-carboxamide], for which the 50% effective concentration (EC50) was 188 nM and the Emax stood at 186%.

Regarding `COc1cccc(CCNC(=O)[C@@H]2CC(=O)N(C)[C@@H](CC(C)C)C(=O)N(CCC3CCCCC3)CC(=O)N[C@H](Cc3ccccn3)COc3ccc4ccccc4c3C(=O)N2)c1` [Example 701, (3S,7S,13R)-9-(2-cyclohexylethyl)-7-isobutyl-N-(3-methoxyphenethyl)-6-methyl-1,5,8,11-tetraoxo-13-(pyridin-2-ylmethyl)-1,2,3,4,5,6,7,8,9,10,11,12,13,14-tetradecahydronaphtho[1,2-p][1]oxa[4,7,10,14]tetraazacycloheptadecine-3-carboxamide], the EC50 came to 165 nM and the Emax turned out to be 268%.

As for `Cc1cc(CCNC(=O)[C@@H]2CC(=O)N(C)[C@@H](CC(C)C)C(=O)N(CC3Cc4ccccc4O3)CC(=O)N[C@H](Cc3ccccc3)COc3cnc4ccccc4c3C(=O)N2)on1` (stereo partly drawn) [Example 702, (3S,7S,13R)-13-benzyl-9-((2,3-dihydrobenzofuran-2-yl)methyl)-7-isobutyl-6-methyl-N-(2-(3-methylisoxazol-5-yl)ethyl)-1,5,8,11-tetraoxo-1,2,3,4,5,6,7,8,9,10,11,12,13,14-tetradecahydro-[1]oxa[4,7,10,14]tetraazacycloheptadecino[17,16-c]quinoline-3-carboxamide], the EC50 was 295 nM and the Emax turned out to be 162%.

Turning to `Cc1cc(CCNC(=O)[C@@H]2CC(=O)N(C)[C@@H](CC(C)C)C(=O)N(CC[C@@H]3CCCCO3)CC(=O)N[C@H](Cc3csc4ccccc34)COc3cnc4ccccc4c3C(=O)N2)on1` [Example 703, (3S,7S,13R)-13-(benzo[b]thiophen-3-ylmethyl)-7-isobutyl-6-methyl-N-(2-(3-methylisoxazol-5-yl)ethyl)-1,5,8,11-tetraoxo-9-(2-((S)-tetrahydro-2H-pyran-2-yl)ethyl)-1,2,3,4,5,6,7,8,9,10,11,12,13,14-tetradecahydro-[1]oxa[4,7,10,14]tetraazacycloheptadecino[17,16-c]quinoline-3-carboxamide], the EC50 is 316 nM and the Emax stood at 167%.

Take `Cc1cc(CCNC(=O)[C@@H]2CC(=O)N(C)[C@@H](CC(C)C)C(=O)N(C[C@H]3COc4ccccc4C3)CC(=O)N[C@H](Cc3ccccc3)COc3cnc4ccccc4c3C(=O)N2)on1` [Example 704, (3S,7S,13R)-13-benzyl-9-(((S)-chroman-3-yl)methyl)-7-isobutyl-6-methyl-N-(2-(3-methylisoxazol-5-yl)ethyl)-1,5,8,11-tetraoxo-1,2,3,4,5,6,7,8,9,10,11,12,13,14-tetradecahydro-[1]oxa[4,7,10,14]tetraazacycloheptadecino[17,16-c]quinoline-3-carboxamide]: the EC50 was 398 nM and the Emax came to 156%.

The values are drawn from US20240208992A1, “MACROCYCLES AS CFTR MODULATORS” (Idorsia Pharmaceuticals Ltd, priority 2021, published 2024).
